The values below are quoted from earlier work in article PMC9374181 (Toxicology and applied pharmacology, 2022).

For orientation: Cmax means the highest concentration seen after dosing.

The structures appear in SMILES notation. Read-outs that look alike come from different tables or passages of the source.

The conditions of data set [1]: rat models, IM.
Where [2] appears, read: general statement on approved oximes.

Take `C[n+]1ccccc1/C=N/O` [Oxime 2-PAM, pralidoxime]: the Cmax in data set [1] (40 mg/kg, ref Green et al., 1986) is 14500 ng/mL. For the same compound, the “plasma T1/2” value under setting [2] is given as “less than 90 min”. Also, the published half-life result (published value, no reference given) was “less than 2 hours”.
Regarding `NC(=O)c1cc[n+](COC[n+]2ccccc2/C=N/O)cc1` [asoxime], in data set [1] (50 mg/kg, ref Cassel and Fosbraey, 1996), the Cmax is 900 ng/mL. The “plasma T1/2” value under setting [2] is reported as “less than 90 min”; the “plasma T1/2” value (ref Cassel and Fosbraey, 1996) is 48 min.
In the case of `O/N=C/c1cc[n+](COC[n+]2ccc(/C=N/O)cc2)cc1` [obidoxime], in data set [1] (50 mg/kg, no reference given), the Cmax is 26000 ng/mL. For the same compound, the “plasma T1/2” value is listed as “less than 90 min” under setting [2] and 35 min (ref Alioth-Streichenberg et al., 1991).
